Test results taken from US11129801B2 (SigmaThera SAS, priority 2016, dated 2021).

Tested on: rat primary dopaminergic neurons (TH positive neurons)
Test: Survival of primary dopaminergic neurons injured by 6OHDA
Type: cell-based
Conditions: 6OHDA 20 μM, 48 h
Method: Rat dopaminergic neurons were cultured as described (Schinelli S, et al. Journal of neurochemistry 50(6): 1900-1907). Briefly pregnant female rats of 15 days gestation were killed by cervical dislocation (Rats Wistar; Janvier) and the foetuses removed from the uterus. The embryonic midbrains were removed and placed in ice-cold medium of Leibovitz 15 (L15; PanBiotech, Ref P04-27055, Batch: 8810315) containing 2% of Penicillin-Streptomycin (PS; PanBiotech, ref: P06-07100, Batch: 7511015) and 1% of bovine serum albumin (BSA; PanBiotech, Ref: P06-1391100, Batch: H140904). Only the ventral portions of the mesencephalic flexure were used for the cell preparations as this region of the developing brain is rich in dopaminergic neurons. The midbrains were dissociated by trypsinization for 20 minutes (min) at 37° C. (Trypsin EDTA 1×; PanBiotech, Ref: P10-023100, batch: 1670415). The reaction was stopped by the addition of Dulbecco's modified Eagle's medium (DMEM; PanBiotech, Ref: P04-03600, Batch: 9021115) containing DNase I grade II (0.1 mg/ml; PanBiotech, Ref: P60-37780100, Batch: H140508) and 10% of fetal calf serum (FCS; Invitrogen). Cells were then mechanically dissociated by 3 passages through a 10 ml pipette. Cells were then centrifuged at 180×g for 10 min at 4° C. on a layer of BSA (3.5%) in L15 medium. The supernatant was discarded and the cell pellets were re-suspended in a defined culture medium consisting of Neurobasal (Invitrogen, Ref: 21103, Batch: 1754639) supplemented with B27 (2%; Invitrogen, ref: 17504, batch: 1799273), L-glutamine (2 mM; PanBiotech, Ref: P04-80100, Batch: 6620314) and 2% of PS, 10 ng/mL of BDNF (PanBiotech, Ref: CB-1115002, Batch: 121027) and 1 ng/mL of GDNF (PanBiotech, Ref: CB-1116001, Batch: H151004). Viable cells were counted in a Neubauer cytometer using the trypan blue exclusion test. The cells were seeded at a density of 4×10^4 cells/well in 96 well-plates (pre-coated with poly-D-lysine; Greiner, Ref: E150033VJ) and were cultured at 37° C. in a humidified air (95%)/CO2 (5%) atmosphere. Half of the medium was changed every 2 days with fresh medium. In these conditions, after 5 days of culture, astrocytes are present in the culture and release growth factor allowing neurons differentiation. Five to six percent of the neuronal cell population was dopaminergic neurons.
Briefly, on day 6 of culture, cells were pre-treated for 1 h with test compound or reference compound then intoxicated with 6OHDA (20 μM) for 48 h. The following conditions were done:
[…]_+6OHDA (20 μM, 48 h+BDNF (50 ng/ml) as a reference compound
One culture was done with 6 wells per condition. […]
The data were expressed as mean±s.e.m. […]

What does the source list for `CCC(C/C=C/c1ccccc1)(c1ccccc1)N(C)CC1CC1` (single isomer, unassigned; (+)) [igmesine, (+)-(E)-N-(cyclopropylmethyl)-N-methyl-3,6-diphenylhex-5-en-3-amine]?
TH positive neurons (0.3 μM): 94.58 % of the control; TH positive neurons (1 μM): 100.49 % of the control; TH positive neurons (3 μM): 87.68 % of the control

B1: BDNF: Brain-derived neurotrophic factor, used as a reference compound (protein, UniProt P23560 19-247, looked up)
Neurotrophic factor BDNF …: APMKEANIRGQGGLAYPGVRTHGTLESVNGPKAGSRGLTSLADTFEHVIEELLDEDQKVRPNEENNKDADLYTSRVMLSSQVPLEPPLLFLLEEYKNYLDAANMSMRVRRHSDPARRGELSVCDSISEWVTAADKKTAVDMSGGTVTVLEKVPVSKGQLKQYFYETKCNPMGYTKEGCRGIDKRHWNSQCRTTQSYVRALTMDSKKRIGWRFIRIDTSCVCTLTIKRGR
Which TH positive neurons (50 ng/mL) does the source give for B1 here?
The TH positive neurons was 91.03 % of the control.
